Molecular target: T1, H3R (Homo sapiens, UniProt Q9Y5N1)
T1 construct: expressed in transfected cells; pcDNA3.1(+) vector, G418 selection)
Assay: [35S] GTP γ [S] binding assay, antagonist activity in the presence of agonist
Assay type: biochemical
Conditions: membranes from H3R8-expressing HEK293 cell line; agonist R(−)alpha methylhistamine
Procedure: Membranes isolated as described in (Preparation of Histamine Receptor Subtype Membranes) were used in a [35S]GTPχS functional assay. Binding of [35S]GTPχS to membranes indicates agonist activity. Compounds of the invention of Formula I or Formula II were tested for their ability to inhibit binding in the presence of agonists. Alternately, the same transfected cell lines were used for a cAMP assay wherein H3R agonists inhibited forskolin-activated synthesis of cAMP. Compounds of Formula I or Formula II were tested for their ability to permit forskolin-stimulated cAMP synthesis in the presence of agonist.
cDNA for the human histamine 3 receptor was cloned and expressed as described in (A. Preparation H1R membranes), above. Transfected cells were selected using G418 (500μ/ml), grown, and tested for histamine binding by the SPA described above. For total binding, cells were assayed in a SPA reaction described above containing 50 mM Tris-HCL (assay buffer), pH 7.6, 1 mg wheat germ agglutinin SPA beads (Amersham Pharmacia Biotech, #RPNQ0001), and 1 nM (3H)-n-alpha-methylhistamine (NEN, NET1027) (total volume per well=200 μl). Thioperimide was added to determine non-specific binding. […]
Antagonist activity of selected compounds was tested for inhibition of [35S] […] Plates were counted in Wallac Trilux 1450 Microbeta scintillation counter for 1 minute. […]

T1 sequence (Q9Y5N1 whole entry): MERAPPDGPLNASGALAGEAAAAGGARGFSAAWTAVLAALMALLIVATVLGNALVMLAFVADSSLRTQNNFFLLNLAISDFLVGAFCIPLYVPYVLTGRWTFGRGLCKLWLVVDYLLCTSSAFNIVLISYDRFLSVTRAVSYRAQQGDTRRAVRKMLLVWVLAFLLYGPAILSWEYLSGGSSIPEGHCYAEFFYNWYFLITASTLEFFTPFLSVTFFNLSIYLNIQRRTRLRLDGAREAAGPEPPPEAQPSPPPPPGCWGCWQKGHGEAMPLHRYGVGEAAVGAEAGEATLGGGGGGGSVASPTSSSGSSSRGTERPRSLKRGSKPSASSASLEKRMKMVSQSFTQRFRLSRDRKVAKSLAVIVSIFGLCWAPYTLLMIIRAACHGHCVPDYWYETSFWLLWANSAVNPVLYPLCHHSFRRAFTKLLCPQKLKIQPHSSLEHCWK

Row | Ki [nM] | Compound
1 | 32 | O=C(c1ccc(-c2ccc(OCCN3CCCCC3)cc2)cc1)N1CCC[C@H]1CN1CCCC1
2 | 4.9 | O=C(c1ccc(-c2ccccn2)cc1)N1CCC[C@H]1CN1CCCC1
